Laboratory results as given in patent publication US20220133688A1, “MACROCYCLIC LACTONE ANTHELMINTICS AGAINST NEMATODES” (Bayer Animal Health GmbH, priority 2019, published 2022).
“And” between values parts separate entries of the source, which are not always exact repeats. Identical values can stand only once. Like-named read-outs stand apart in the source and are kept apart here.

Legend:
[1] = test system: D. immitis Mf, Metairie-2014 strain (resistant); test: Cell attachment assay (canine PMN or PBMC attachment to Mf), Metairie-2014 isolate; format: cell-based, Dirofilaria immitis; conditions: for lowest drug concentration at which a statistically significant increase (p = <0.05) in cell attachment was observed compared to the no-drug control: 2-way ANOVA
[2] = test system: D. immitis Mf, Yazoo-2013 strain (resistant); test: Cell attachment assay (canine PMN or PBMC attachment to Mf), Yazoo-2013 isolate; format: cell-based, Dirofilaria immitis

Row | SMILES | Percentage (±SEM) of Mf with cells attached [1] | drug concentration required for a significant increase in cell attachment [1] [µM] | increase in attachment of PBMCs at any concentration [1] | Percentage (±SEM) of Mf with cells attached [2] | drug concentration causing a significant increase in cell attachment [2] [nM] | lowest drug concentration at which a statistically significant increase (p = <0.05) in cell attachment was observed compared to the no-drug control [2] [nM] | Percentage (±SEM) of Mf with cells attached ([1]; PBMC, 1 μM drug, Metairie-2014 Mf) [%] | lowest drug concentration at which a statistically significant increase (p = <0.05) in cell attachment was observed compared to the no-drug control ([1]; PBMC, 40 h, Metairie-2014 Mf) [nM] | Percentage (±SEM) of Mf with cells attached ([1]; PMN, 1 μM drug, Metairie-2014 Mf) [%] | lowest drug concentration at which a statistically significant increase (p = <0.05) in cell attachment was observed compared to the no-drug control ([1]; PMN, 24 h, Metairie-2014 Mf) [nM] | Percentage (±SEM) of Mf with cells attached ([2]; PBMC, 1 μM drug, Yazoo-2013 Mf) [%] | lowest drug concentration at which a statistically significant increase (p = <0.05) in cell attachment was observed compared to the no-drug control ([2]; PBMC, 40 h, Yazoo-2013 Mf, 2-way ANOVA) [nM] | Percentage (±SEM) of Mf with cells attached ([2]; PMN, 1 μM drug, Yazoo-2013 Mf) [%] | lowest drug concentration at which a statistically significant increase (p = <0.05) in cell attachment was observed compared to the no-drug control ([2]; PMN, 24 h, Yazoo-2013 Mf, 2-way ANOVA) [nM] | drug concentration causing a significant increase in cell attachment ([2]; PMNs and PBMCs, Yazoo-2013 Mf) [nM]
1 | CC[C@H](C)[C@H]1O[C@]2(CC[C@@H]1C)C[C@@H]1C[C@@H](C/C=C(\C)[C@@H](O[C@H]3C[C@H](OC)[C@@H](O[C@H]4C[C@H](OC)[C@@H](O)[C@H](C)O4)[C@H](C)O3)[C@@H](C)/C=C/C=C3\CO[C@@H]4[C@H](O)C(C)=C[C@@H](C(=O)O1)[C@]34O)O2 [IVM, ivermectin] | 13% and 10% and 13 ± 3% and 10 ± 2% | ≥ 1 | no significant increase | 25 ± 5% and 18 ± 4% | 100 to 300 | 100 | – | – | – | – | – | – | – | – | –
2 | CO/N=C1\C[C@]2(C[C@@H]3C[C@@H](C/C=C(\C)C[C@@H](C)/C=C/C=C4\CO[C@@H]5[C@H](O)C(C)=C[C@@H](C(=O)O3)[C@]45O)O2)O[C@H](/C(C)=C/C(C)C)[C@H]1C [MOX, moxidectin] | – | – | – | – | – | – | 49 ± 8 | 1 | 42 ± 6 | 10 | 19 ± 3 | 10 | 28 ± 5 | 3 | 3 to 10
